12 compounds from patent US12310967B2, “Compositions and methods of treatment for neurological disorders comprising motor neuron diseases” (Gliapharm SA, priority 2017, dated 2025) can be followed below.

In assay [1] the test system is primary astrocytes. Kind of assay: Mitochondrial activity: production of H2O2 (Amplex red). It counts as cell-based. The conditions noted are these: Mus musculus, Astrocyte, 1.5 h; CDC54K hits, 0-200 uM, 90 min. The protocol:
Hydrogene peroxide (H2O2) released in the supernatant is detected enzymatically with Amplex red (Zhou, Diwu et al. 1997). Oxidation of Amplex red is catalysed by the horseradish peroxidase in presence of H2O2 into highly fluorescent resorufin. Fluorescence measure is read at 545 nm extinction, 590 nm emission. The amount of H2O2 was expressed relatively to the proteins content extracted from the cells in culture.
Mitochondrial respiration in astrocytes was measured through production of H2O2 at 90 min after stimulation with Prestwick Hits (10 uM each). […] CCCP (2 uM) was used as positive control.
Mitochondrial respiration in astrocytes was measured through production of H2O2 at 90 min after stimulation with CDC54K Hits (ranging from 0 to 200 uM).

The test system of assay [2] is primary astrocytes. Kind of assay: Intracellular glycogen quantification, Example 2. The format is cell-based, mouse. The settings on record: 10 μM, 3 h. The protocol: Astrocytes grown on 12-well plates were used for intracellular glycogen quantifications. Cells were stimulated with Vehicle (DMSO), with compounds of the invention (10 μM), or with a positive control for 180 min, at 37° C. 5% CO2/95% air in D5030 medium complemented with
5 mM D-glucose and 44 mM sodium bicarbonate (pH 7.2). […] At the end of the stimulation, medium was removed and replaced with 600 μl of 30 mM Tris HCl, and stored at −20° C.
First, the amount of proteins in each sample was quantified to assess whether harvested astrocytes from primary cell cultures yielded enough and equivalent amounts of proteins on each replicates. Proteins were quantified using the micro BCA Protein Assay kit (Thermo Scientific), according to manufacturer's instructions. Next, intracellular glycogen concentrations were quantified using a 250 μl-aliquot of the same stimulated, thawed, and sonicated cell lysate. After an incubation period of 30 min at 90° C. and 400 rpm, 28 μl of a 0.1M acetic acid/sodium acetate buffer (pH 4.6) was added to each lysate aliquots, which were then separated in two. Each split aliquots received either 5 μl of amyloglucosidase or H2O, and incubated for 120 min at 37° C. After centrifugation at 16'000G for 5 min, 20 μl of supernatant were placed in a 96-well plate, to which 150 μl of a mix containing 0.67 mM ATP, 0.67 mM NADP, 1.8% hexokinase/glucose-6-phosphate dehydrogenase in a 0.1M Tris Buffer-HCl/3.3 mM magnesium (pH 8.1) buffer was added. Fluorescence intensity (340 nm excitation/440 nm emission) was measured using a Safire 2 spectrophotometer. Glucose concentrations were assessed relative to a glucose standard curve, and glycogen concentrations were calculated by subtracting glucose values of samples that had received amyloglucosidase (i.e. that had degraded their glycogen stores) to samples that had not. Intracellular levels of glycogen, which is the main source of glucose storage in the brain, were analyzed in primary astrocytes after treatment with compounds of interest (10 μM, 3 h) (FIG. 5B), and compound GP-0157 (0.1, 1, 10 μM, 3 h) (FIG. 20).

The subject of assay [3] is primary astrocytes. The experiment in a line: MTT viability assay. The format is cell-based. The settings on record: Mus musculus, Astrocyte; CDC54K hits, 0-200 uM, 24 h. The protocol: For cell toxicity determination, astrocytes in 96-well plates were stimulated 24 h (37° C. 5% CO2/95% air) with a gradient ranging from 0.1 to 200 μM of tested compounds. After stimulation, 5 mg/ml thiazol blue tetrazolium bromide (MTT, Sigma-Aldrich) in warm D5030 complete medium was added to each well, and cells were incubated for 4 h at 37° C. (5% CO2). The medium was then removed by aspiration, and the reaction was stopped by the addition of 50 μl DMSO per well.
The amount of reduced MTT (formazan) solubilized in DMSO was then determined spectrophotometrically using absorbance at 570 nm (Safire 2; Tecan).
MTT cellular viability assay was performed on astrocytes exposed to Preswtick Hits (concentrations ranging from 0 uM to 200 uM).
MTT cellular viability assay was performed on astrocytes exposed to CDC54K Hits (concentrations ranging from 0 uM to 200 uM).

Assay [4] deals with primary astrocytes. The experiment in a line: Extracellular lactate quantification. The settings on record: for Score_LACTATE: Appendix I, secondary screening: extracellular lactate; for EC50: Mus musculus, Astrocyte. The format is cell-based, mouse. In short, it runs like this:
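Astrocytes were stimulated 90 min at 37 °C in D5030 medium with 5 mM glucose and 44 mM bicarbonate, with compound at 0-100 μM. Extracellular lactate was measured enzymatically with LDH/NAD in glycine-semicarbazide buffer, pH 10, for 1 h at 37 °C. NADH fluorescence (340/450 nm) was converted to lactate using an L-lactate standard curve.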

The test system of assay [5] is cerebral extracellular lactate. The experiment in a line: In vivo pharmacodynamics - lactate biosensors. More on the design: species or system mouse. The settings on record: 100 mg/kg per os, AUC ratio vs vehicle. The protocol: Extracellular levels of lactate were monitored in vivo using lactate biosensors (Pinnacle Technology), according to the manufacturer's instructions. Cannulae were surgically implanted in mice cerebral cerebral motor cortex areas M1/M2 (coordinates: +1.94 mm (to bregma), lateral −1.4 mm (to mideline), ventral −1.0 mm (to dura)) 5-7 days before administration of the compounds. Drugs were administered per os as previously described, and cerebral levels of extracellular lactate were dynamically recorded for 6 hours. Mice were administered vehicle alone first, followed 3 hours later by vehicle or drug (10 or 100 mg/kg). Area Under the Curve (AUC) quantifying the fluctuations of extracellular lactate concentrations for each of the compound tested was calculated using Graphad Prism and the ratio of AUC after drug over Vehicle administration was calculated. Groups of 8 male mice were used for each condition.
To measure biological effect of lead molecules in vivo in the brain, lactate levels were quantified after administration of the drug by using lactate biosensors implanted in the cortex of freely moving mice.

[6] abbreviates: 1.5 h, CDC54K hits, 0-100 uM, 90 min, read-out: Lactate EC50.

Like-named read-outs stand apart in the source and are kept apart here.

For orientation: IC50 means the concentration that inhibits the measured activity by half. Higher therefore signals weaker potency. As a reminder, the EC50 is the concentration needed to bring the measured effect to its halfway point. For the compound `Cc1ccccc1NC(=O)C1CCCN(c2ncnc3oc(C)c(C)c23)C1` (stereo not shown) [F228-0422], the IC50 in the assay with primary astrocytes [1] and in the assay with primary astrocytes [3] was over 200 µM in each case. Moreover, in the assay with primary astrocytes [2], the “mobilization of intracellular glycogen” value is listed as “significantly enhance”. The compound also registered a Score_LACTATE with primary astrocytes [4] of 0.6364. For the same compound, the EC50 with primary astrocytes [4] (setting [6]) came out at 0.5 µM.

As to `CCc1nc(-c2csc(S(=O)(=O)NCc3ccc4c(c3)OCO4)c2)no1` [L287-0468], the IC50 in the assay with primary astrocytes [1] and in the assay on primary astrocytes [3] was over 200 µM throughout. In addition, the “mobilization of intracellular glycogen” value in the assay on primary astrocytes [2] was “significantly enhance”. In the assay with primary astrocytes [4], this compound gave a Score_LACTATE of 0.6179. Besides, the EC50 in the assay with primary astrocytes [4] (setting [6]) amounted to 7.9 µM.

With `CCn1nccc1-c1csc(S(=O)(=O)Nc2ccc(Cl)cc2F)c1` [L924-1031], the IC50 with primary astrocytes [1] is 48.6 µM; with primary astrocytes [3] it was over 200 µM. Moreover, the “mobilization of intracellular glycogen” value in the assay on primary astrocytes [2] was “significantly enhance”. In addition, the Score_LACTATE in the assay on primary astrocytes [4] is 1.632. The EC50 in the assay on primary astrocytes [4] (setting [6]) was 25.3 µM.

Consider `CSc1cccc(NS(=O)(=O)c2ccc3onc(C(=O)N4CCCC4)c3c2)c1` [L995-0125], for which the figures for the IC50 with primary astrocytes [1] and with primary astrocytes [3] were 173 µM and over 200 µM, respectively. In addition, the Score_LACTATE in the assay on primary astrocytes [4] is 0.9122. The EC50 with primary astrocytes [4] (setting [6]) was determined as 2 µM.

As to `CC(=O)N1CCc2sc(S(=O)(=O)N3CCN(c4ccccc4C)CC3)cc2C1` [P025-0159], in assay [5], the cerebral lactate result is listed as “Significant increase”. The IC50 with primary astrocytes [1] and in the assay on primary astrocytes [3] was over 200 µM throughout. In the assay on primary astrocytes [2], the “mobilization of intracellular glycogen” value is “significantly enhance”. This compound also had a Score_LACTATE in the assay with primary astrocytes [4] of 0.9232. For the same compound, the EC50 in the assay with primary astrocytes [4] (setting [6]) was found to be 8.7 µM.

For the compound `c1ccc2c(c1)CCN(c1ncnc3sccc13)C2` [T0517-8250], the “mobilization of intracellular glycogen” value in the assay with primary astrocytes [2] is listed as “significantly enhance”. This compound returned a Score_LACTATE with primary astrocytes [4] of 0.9269.

On to `N#Cc1ccc(C(=O)N2CCC(Nc3ncnc4c3CCC4)C2)cc1` (stereo not shown) [T636-2387], for which, in assay [5], the cerebral lactate entry was “Significant increase”. In addition, the 50% inhibitory concentration (IC50) in the assay on primary astrocytes [1] and with primary astrocytes [3] was over 200 µM each time. The “mobilization of intracellular glycogen” value in the assay on primary astrocytes [2] is given as “significantly enhance”. This compound also gave a Score_LACTATE in the assay on primary astrocytes [4] of 0.3005. Besides, the “Score Lact.” value in the assay on primary astrocytes [4] (Appendix II, CDC54K library) is listed as 0.30. Moreover, the EC50 stood at 11.5 µM in the assay with primary astrocytes [4] (setting [6]) and 6.83 µM in the assay with primary astrocytes [4] (Appendix II, lactate secretion, read-out: EC50).

`CCc1ccc(S(=O)(=O)N2CCSC2c2ccc(OC)c(OC)c2)cc1` (stereo not shown) [T5463586]: the IC50 with primary astrocytes [1] and with primary astrocytes [3] was over 200 µM throughout. In the assay with primary astrocytes [4], the Score_LACTATE came out at 0.3936. Further, in the assay on primary astrocytes [4] (setting [6]), the concentration giving a half-maximal response (EC50) was 10 µM.

For `COc1cc(C)c(Cl)cc1S(=O)(=O)NCc1ccncc1` [T5580243], the cerebral lactate result in assay [5] is reported as “Significant increase”. Further, the IC50 with primary astrocytes [1] and in the assay with primary astrocytes [3] was over 200 µM in each case. The compound also showed a Score_LACTATE in the assay with primary astrocytes [4] of 0.7229. Also, the EC50 in the assay on primary astrocytes [4] (setting [6]) was found to be 11 µM.

With `CCc1ccc(S(=O)(=O)Nc2ccc3[nH]ncc3c2)cc1` [T5599014], the values for the IC50 in the assay on primary astrocytes [1] and in the assay with primary astrocytes [3] were 158 µM and over 200 µM, respectively. The same compound gave a Score_LACTATE in the assay with primary astrocytes [4] of 0.4419. Also, in the assay with primary astrocytes [4] (setting [6]), the EC50 is 8.8 µM.

With `O=C1CCCN1c1ccc(S(=O)(=O)Nc2cccc(/C=C/c3ccccn3)c2)cc1` [T5644989], the IC50 in the assay on primary astrocytes [1] and with primary astrocytes [3] was over 200 µM throughout. Moreover, the “mobilization of intracellular glycogen” value with primary astrocytes [2] is given as “significantly enhance”. In addition, in the assay on primary astrocytes [4], the Score_LACTATE was 0.7859. Besides, in the assay with primary astrocytes [4] (setting [6]), the EC50 came out at 7.9 µM.

On to `Cc1nc2ccc(NS(=O)(=O)c3cccc(F)c3)cc2s1` [T6937001], for which the IC50 in the assay on primary astrocytes [1] and in the assay with primary astrocytes [3] was over 200 µM each time. The “mobilization of intracellular glycogen” value in the assay with primary astrocytes [2] is listed as “significantly enhance”. The compound also displayed a Score_LACTATE in the assay with primary astrocytes [4] of 0.9088. The EC50 in the assay with primary astrocytes [4] (setting [6]) amounted to 11.5 µM.
